Measured values as given in patent US20200172966A1 (YAMAGUCHI UNIVERSITY, priority 2015, published 2020).

Test: incidence of side effect (hematologic toxicity) by single nucleotide polymorphism genotype in Japanese patients with colon cancer who had received irinotecan
Assay type: in vivo, human
Description: By using TaqMan SNP Assays Human (manufactured by Applied Biosystems, Inc.) and LightCycler (R) 480 Probe Master (manufactured by Roche Diagnostics, Inc.), Universal ProbeLibrary (manufactured by Roche Diagnostics, Inc.), and LightCycler 480 System II (manufactured by Roche Diagnostics, Inc.), 10 ng of genomic DNA was subjected to genotyping. After incubation at 95° C. for 10 min, the sample was subjected to PCR amplification with 55 cycles for rs1980576, rs2272761, and rs9425343, 45 cycles for rs12577167, rs7265854, and rs1135640, or 40 cycles for rs1547 (1 cycle consisted of 92° C. for 15 sec and 60° C. for 60 sec). The fluorescence emitted from the PCR products were measured.
The “Odds ratio” in Table 3 refers to an odds ratio indicating the occurrence of a side effect as calculated using a Fisher's exact test on a single nucleotide polymorphism being homozygous for a wild-type or homozygous for a variant type.
The term (P value/C.-A.) in Table 4 is the same as in Table 2. […] The term “Odds ratio” in Table 5 is the same as in Table 3.

[1] = N = 72, homozygous UGT1A1*28 excluded (Table 5), ACOX1 rs1135640 G/G
[2] = N = 72, homozygous UGT1A1*28 excluded, ACOX1 rs1135640 C/C, C/G
[3] = N = 72, homozygous UGT1A1*28 excluded, APCDD1L rs1980576 A/A
[4] = N = 72, homozygous UGT1A1*28 excluded, APCDD1L rs1980576 A/A, A/G
[5] = N = 72, homozygous UGT1A1*28 excluded, APCDD1L rs1980576 A/G, G/G
[6] = N = 72, homozygous UGT1A1*28 excluded, APCDD1L rs1980576 G/G
[7] = N = 72, homozygous UGT1A1*28 excluded, APCDD1L rs7265854 C/C
[8] = N = 72, homozygous UGT1A1*28 excluded, APCDD1L rs7265854 T/T, T/C
[9] = N = 72, homozygous UGT1A1*28 excluded, EDEM3 rs9425343 T/G, G/G
[10] = N = 72, homozygous UGT1A1*28 excluded, EDEM3 rs9425343 T/T
[11] = N = 72, homozygous UGT1A1*28 excluded, R3HCC1 rs2272761 G/A, A/A
[12] = N = 72, homozygous UGT1A1*28 excluded, R3HCC1 rs2272761 G/G
[13] = N = 72, homozygous UGT1A1*28 with reduced amount of irinotecan excluded (Table 4), ACOX1 rs1135640 C/C
[14] = N = 72, homozygous UGT1A1*28 with reduced amount of irinotecan excluded (Table 4), ACOX1 rs1135640 C/G
[15] = N = 72, homozygous UGT1A1*28 with reduced amount of irinotecan excluded (Table 4), ACOX1 rs1135640 G/G
[16] = N = 73, homozygous UGT1A1*28 with reduced amount of irinotecan excluded, APCDD1L rs1980576 A/A
[17] = N = 73, homozygous UGT1A1*28 with reduced amount of irinotecan excluded, APCDD1L rs1980576 A/G
[18] = N = 73, homozygous UGT1A1*28 with reduced amount of irinotecan excluded, APCDD1L rs1980576 G/G
[19] = N = 73, homozygous UGT1A1*28 with reduced amount of irinotecan excluded, APCDD1L rs7265854 A/A
[20] = N = 73, homozygous UGT1A1*28 with reduced amount of irinotecan excluded, APCDD1L rs7265854 A/G
[21] = N = 73, homozygous UGT1A1*28 with reduced amount of irinotecan excluded, APCDD1L rs7265854 G/G
[22] = N = 73, homozygous UGT1A1*28 with reduced amount of irinotecan excluded, CSMD2 rs474474 A/A
[23] = N = 73, homozygous UGT1A1*28 with reduced amount of irinotecan excluded, CSMD2 rs474474 A/G
[24] = N = 73, homozygous UGT1A1*28 with reduced amount of irinotecan excluded, CSMD2 rs474474 G/G
[25] = N = 73, homozygous UGT1A1*28 with reduced amount of irinotecan excluded, EDEM3 rs9425343 G/G
[26] = N = 73, homozygous UGT1A1*28 with reduced amount of irinotecan excluded, EDEM3 rs9425343 T/G
[27] = N = 73, homozygous UGT1A1*28 with reduced amount of irinotecan excluded, EDEM3 rs9425343 T/T
[28] = N = 73, homozygous UGT1A1*28 with reduced amount of irinotecan excluded, GATA2 rs2335052 A/A
[29] = N = 73, homozygous UGT1A1*28 with reduced amount of irinotecan excluded, GATA2 rs2335052 G/A
[30] = N = 73, homozygous UGT1A1*28 with reduced amount of irinotecan excluded, GATA2 rs2335052 G/G
[31] = N = 73, homozygous UGT1A1*28 with reduced amount of irinotecan excluded, MKKS rs1547 C/C
[32] = N = 73, homozygous UGT1A1*28 with reduced amount of irinotecan excluded, MKKS rs1547 C/T
[33] = N = 73, homozygous UGT1A1*28 with reduced amount of irinotecan excluded, MKKS rs1547 T/T
[34] = N = 73, homozygous UGT1A1*28 with reduced amount of irinotecan excluded, OR51I2 rs12577167 A/A
[35] = N = 73, homozygous UGT1A1*28 with reduced amount of irinotecan excluded, OR51I2 rs12577167 A/G
[36] = N = 73, homozygous UGT1A1*28 with reduced amount of irinotecan excluded, OR51I2 rs12577167 G/G
[37] = N = 73, homozygous UGT1A1*28 with reduced amount of irinotecan excluded, R3HCC1 rs2272761 A/A
[38] = N = 73, homozygous UGT1A1*28 with reduced amount of irinotecan excluded, R3HCC1 rs2272761 G/A
[39] = N = 73, homozygous UGT1A1*28 with reduced amount of irinotecan excluded, R3HCC1 rs2272761 G/G

SMILES: CCc1c2c(nc3ccc(OC(=O)N4CCC(N5CCCCC5)CC4)cc13)-c1cc3c(c(=O)n1C2)COC(=O)[C@]3(O)CC [irinotecan, 1,4′-Bipiperidine-1′-carboxylic acid (S)-4,11-diethyl-3,4,12,14-tetrahydro-4-hydroxy-3,14-dioxo-1H-pyrano[3′,4′:6,7]indolizino[1,2-b]quinolin-9-yl ester]
- Toxicity No [1]: 21
- Toxicity Yes [1]: 8
- Toxicity No [2]: 17
- Toxicity Yes [2]: 26
- Toxicity No [3]: 16
- Toxicity Yes [3]: 6
- Toxicity No [4]: 35
- Toxicity Yes [4]: 26
- Toxicity No [5]: 22
- Toxicity Yes [5]: 28
- Toxicity No [6]: 3
- Toxicity Yes [6]: 8
- Toxicity No [7]: 8
- Toxicity Yes [7]: 1
- Toxicity No [8]: 30
- Toxicity Yes [8]: 33
- Toxicity No [9]: 31
- Toxicity Yes [9]: 21
- Toxicity No [10]: 7
- Toxicity Yes [10]: 13
- Toxicity No [11]: 32
- Toxicity Yes [11]: 34
- Toxicity No [12]: 6
- Toxicity Yes [12]: 0
- Toxicity No [13]: 3
- Toxicity Yes [13]: 8
- Toxicity No [14]: 14
- Toxicity Yes [14]: 18
- Toxicity No [15]: 21
- Toxicity Yes [15]: 8
- Toxicity No [16]: 16
- Toxicity Yes [16]: 6
- Toxicity No [17]: 20
- Toxicity Yes [17]: 20
- Toxicity No [18]: 3
- Toxicity Yes [18]: 8
- Toxicity No [19]: 13
- Toxicity Yes [19]: 18
- Toxicity No [20]: 18
- Toxicity Yes [20]: 15
- Toxicity No [21]: 8
- Toxicity Yes [21]: 1
- Toxicity No [22]: 16
- Toxicity Yes [22]: 22
- Toxicity No [23]: 18
- Toxicity Yes [23]: 8
- Toxicity No [24]: 5
- Toxicity Yes [24]: 4
- Toxicity No [25]: 10
- Toxicity Yes [25]: 5
- Toxicity No [26]: 21
- Toxicity Yes [26]: 16
- Toxicity No [27]: 8
- Toxicity Yes [27]: 13
- Toxicity No [28]: 5
- Toxicity Yes [28]: 5
- Toxicity No [29]: 20
- Toxicity Yes [29]: 12
- Toxicity No [30]: 14
- Toxicity Yes [30]: 17
- Toxicity No [31]: 20
- Toxicity Yes [31]: 10
- Toxicity No [32]: 16
- Toxicity Yes [32]: 19
- Toxicity No [33]: 3
- Toxicity Yes [33]: 5
- Toxicity No [34]: 19
- Toxicity Yes [34]: 23
- Toxicity No [35]: 14
- Toxicity Yes [35]: 10
- Toxicity No [36]: 6
- Toxicity Yes [36]: 1
- Toxicity No [37]: 22
- Toxicity Yes [37]: 24
- Toxicity No [38]: 11
- Toxicity Yes [38]: 10
- Toxicity No [39]: 6
- Toxicity Yes [39]: 0
- irinotecan side effect observed (of 68 cases considered to have a low risk of a side effect in view of the UGT1A gene polymorphisms): 29 cases
